Assay results from US7265136B1, “Substituted stilbene compounds with vascular damaging activity” (Angiogene Pharmaceuticals Ltd., priority 1999, dated 2007).

Tests used:
CaNT tumours = experiment: Induction of necrosis in tumours, scored on haematoxylin and eosin stained sections; assay type: in vivo, mice; details: Carcinoma NT tumour, 24 h post dose, mean score from at least three tumours, control tumours 2.0
Protocol: Mice bearing either CaNT or SaS tumours were treated with the test compound and tumours excised after 24 h, fixed in formalin, embedded in paraffin, sectioned and stained with haematoxylin and eosin. Sections were scored based on area of necrosis as follows:
Control tumours had mean scores of 2.0 (CaNT) and 1.0 (SaS). Mean values from at least three different tumours were obtained for each test compound.

CaNT tumour vasculature = experiment: Activity against tumour vasculature measured by fluorescent dye (Hoechst 33342): tumour functional vascular volume; assay type: in vivo, mice; details: Carcinoma NT tumour, 24 h post dose
Protocol: Activity Against Tumour Vasculature Measured by Fluorescent Dye.
Tumour functional vascular volume in CaNT tumour-bearing mice was measured using the fluorescent dye Hoechst 33342 according to the method of Smith et al (Brit J Cancer 57, 247-253, 1988). The fluorescent dye was dissolved in saline at 6.25 mg/ml and injected intravenously at 10 mg/kg 24 hours after drug treatment. One minute later, animals were killed and tumours excised and frozen; 10 μm sections were cut at 3 different levels and observed under UV illumination using an Olympus microscope equipped with epifluorescence. Blood vessels were identified by their fluorescent outlines and vascular volume was quantified using a point scoring system based on that described by Chalkley, (J Natl Cancer Inst, 4, 47-53, 1943). All estimates were based on counting a minimum of 100 fields from sections cut at the 3 different levels.

Row | SMILES | Necrosis score (CaNT tumours; 50 mg/kg i.p.) | Necrosis score (CaNT tumours; 50 mg/kg i.v.) | Vascular volume % reduction (CaNT tumour vasculature; 50 mg/kg i.p.) | Vascular volume % reduction (CaNT tumour vasculature; 50 mg/kg i.v.)
1 | COc1ccc(/C=C\c2cc(OC)c(OC)c(OC)c2)cc1OP(=O)(O)O [CA4P, Combretastatin A4 phosphate] | 6.0 | 5.7 | 91% | 88%
2 | COc1ccc(/C=C\c2cc(OC)c(OC)c(OC)c2)cc1OC(=O)C(N)CCCN=C(N)N[N+](=O)[O-] (centres unmarked) [Cmpd. of Example 1, (Z)-1-(4-Methoxy-3-N^G-nitroarginyloxyphenyl)-2-(3,4,5-trimethoxyphenyl)ethene] |  | 10.0 |  | 98%
3 | COC(=O)C(CCCN=C(N)N[N+](=O)[O-])NC(=O)Oc1cc(/C=C\c2cc(OC)c(OC)c(OC)c2)ccc1OC (centres unmarked) [Cmpd. of Example 2, (Z)-N-[2-methoxy-5-[2-(3,4,5-trimethoxyphenyl)ethenyl]phenoxycarbonyl]N^G-nitroarginine Methyl Ester] | 8.0 |  | 95% | 
